# In patent publication US9194863B2, “Treatment of pain” (priority 2011, dated 2015):
# Columns and labels:
# [1] = target: TRPA1 (Homo sapiens, UniProt O75762); conditions: read-out: EC50 as agonist of TRPA1; cited from earlier work
# [2] = target: T1, TRPM3 (Mus musculus, UniProt J9SQF3); conditions: cited from earlier work
# [3] = system: TG neurons; test: Fura-2 intracellular Ca2+ imaging in isolated TG neurons; type: cell-based, mouse; conditions: for fraction of sensitive TG neurons in Trpm3−/− preparations versus Trpm3+/+: Trpm3−/− mice
# Procedure: (§1) Human embryonic kidney cells, HEK293T, were grown in Dulbecco's modified Eagle's medium (DMEM) containing 10% (v/v) human serum, 2 mM L-glutamine, 2 units/ml penicillin, and 2 mg/ml streptomycin at 37° C. in a humidity-controlled incubator with 10% CO2. HEK293T cells were transiently transfected with murine TRPM3α2 (accession number AJ 544535) in the bicistronic pCAGGS/IRES-GFP vector, using Mirus TransIT-293 (Mirus corporation; Madison USA). Transfected cells were visualized by green fluorescence protein (GFP) expression whereas GFP negative cells from the same batch were used as controls. TG and DRG neurons from adult (postnatal weeks 8-12) male mice were isolated as described previously (Karashima et al., 2007). HEK293T cells stably transfected with TRPM3α2 were developed using the Flp-In System (Invitrogen).
# (§2) Fura-2-based ratiometric intracellular Ca^2+ measurements were performed as described previously (Vriens et al., 2007). The following procedure was used to distinguish stimulus-induced responses from background variations in fluorescence. First, we calculated the time derivative of the fluorescence ratio (dRatio/dt), and the standard deviation (SD) of dRatio/dt in the absence of any stimulus. A positive response was noted when a stimulus caused an increase of dRatio/dt exceeding 5×SD. […] For every condition, a minimum of 100 cells derived from at least three separated isolations and in at least twelve independent measurements were analyzed.
# [4] = system: mice; test: Nocifensive behavior after injection into the plantar skin of the hind paw; type: in vivo, mouse
# Procedure: (§3) Hind paw injections, drinking tests, thermal gradient tests, temperature choice tests, hot plate, cold plate, tail clip and tail immersion assays were performed as previously described (Cao et al., 1998; Caterina et al., 2000; Karashima et al., 2009; Mocrich et al., 2005). To evoke inflammatory hyperalgesia, Complete Freund's Adjuvant (CFA, Sigma) (50 μl) was injected intraplantarly in both hindpaws 24 h before behavioral testing. Corn oil was used as vehicle control. To obtain pharmacological inhibition of TRPV1, AMG 9810 (Tocris Bioscience) dissolved in DMSO was injected i.p at 3 mg/kg during consecutive 7 days (Gavva et al., 2007; Gavva et al., 2005). DMSO was used as vehicle control. All animal experiments were carried out in accordance with the European Union Community Council guidelines and were approved by the local ethics committee.
# [5] = system: TG neurons; test: Whole-cell patch-clamp on TG neurons; type: cell-based, mouse
# Procedure: (§4) Whole-cell membrane currents were measured with an EPC-10 (HEKA Elektronik, Lambrecht, Germany). The sampling rate was 20 kHz and currents were digitally filtered at 2.9 kHz. For recordings on HEK293T cells, the extracellular solution contained (in mM): 138 NaCl, 5.4 KCl, 2 MgCl2, 2 CaCl2, 10 glucose, 10 HEPES (pH 7.2 with NaOH), and the pipette solution contained (in mM): 100 CsAsp, 45 CsCl, 10 EGTA, 10 HEPES, 1 MgCl (pH 7.2 with CsOH). For recordings on sensory neurons, the extracellular solution contained (in mM): 140 NaCl, 4 KCl, 2 MgCl2, 100 nM TTX, 10 TRIS (pH 7.4 with HCl), and the pipette solution contained (in mM): 140 CsCl, 0.6 MgCl2, 1 EGTA, 10 HEPES, 5 TEA (pH 7.2 with CsOH). To determine the I-V relationship of PS induced currents in neurons, all measurements were performed under monovalent free extracellular conditions in order to suppress other cationic conductances present in DRG neurons. The extracellular solution contained in mM 2 CaCl2, 2 MgCl2, 10 HEPES, 280 D-Mannitol (pH 7.2 with NMDG).
# [6] = target: T2, TRPV1 (Homo sapiens, UniProt Q8NER1); test: Intracellular Ca2+ responses in HEK293T cells transiently expressing TRPV1; type: cell-based; conditions: PS 20 μM, capsaicin 2 μM
# T2 construct: expressed in transfected cells; host or cells: HEK293T, transient
# Procedure: as §2
# [7] = system: DRG neurons; test: Fura-2 intracellular Ca2+ imaging in isolated DRG neurons; type: cell-based, mouse; conditions: for fraction of sensitive DRG neurons in Trpm3−/− preparations versus Trpm3+/+: Trpm3−/− mice
# Procedure: as §1, §2
# [8] = target: T3, TRPM3α2 (Mus musculus, UniProt J9SQF3); test: Intracellular Ca2+ responses in HEK293T cells transiently expressing TRPM3; type: cell-based, murine; conditions: PS 20 μM, capsaicin 2 μM
# T3 construct: expressed in transfected cells; host or cells: HEK293T, transient
# Procedure: as §1
# as §2, with “stimulus.” for “stimulus. A positive response was noted when a stimulus caused an increase of dRatio/dt exceeding 5×SD.”
# [9] = target: T2, TRPV1; test: Ca2+ imaging of TRPV1-mediated responses in the presence of AMG 9810; type: cell-based
# [10] = target: T1, TRPM3; test: Ca2+ imaging of TRPM3-mediated responses in the presence of AMG 9810; type: cell-based
# Procedure: as §2
# [11] = target: T3, TRPM3α2; test: 96 well plate Fluo-4 assay of temperature-dependent Ca2+ responses, HEK293T stably expressing TRPM3; type: cell-based, murine; conditions: PS at 10 μM
# Procedure: To determine an average temperature-response relation for TRPM3, we also used a fluo-4-based assay using 96 well plates and the 7500 Real-Time PCR system (Applied Biosystems). HEK293T cells stably expressing murine TRPM3α2 (FIG. 9B) or non transfected HEK293T cells were loaded with Fluo-4-AM for 30 min, trypsinized, centrifuged, resuspended in a solution containing (in mM) 150 NaCl, 6 KCl, 2 MgCl2, 2 CaCl2, and 10 HEPES (pH 7.4 with NaOH) and transferred to a 96-well plate (at 15000-25000 cells/well; 50 μl). When indicated, PS (10 μM) was added to the wells. Fluo-4 fluorescence was measured while the well temperature was raised from 16 to 43° C. in 3-degrees steps. Background-subtracted fluorescence signals were used to calculate temperature-induced changes in fluorescence as ΔF/F16 °C, where F16 °C is the background corrected fluorescence at 16° C. and ΔF=F−F16 °C. The neurosteroids pregnenolone sulphate, progesterone and the TRPV1 activator capsaicin (all Sigma) were applied at indicated concentrations from a respectively 100 mM, 250 mM and 10 mM stock solution in DMSO.
# [12] = target: T1, TRPM3; test: Whole-cell current measurements in TRPM3-expressing HEK293T cells; type: cell-based, murine; set-up: expressed in transfected cells; conditions: PS 5 μM
# Procedure: as §4
# [13] = target: T1, TRPM3; test: Intracellular Ca2+ increase by low doses of PS at room temperature and 37° C., HEK293T stably expressing TRPM3; type: cell-based, murine; set-up: expressed in transfected cells; conditions: 100 nM PS
# Procedure: as §1
# as §2, with “stimulus.” for “stimulus. A positive response was noted when a stimulus caused an increase of dRatio/dt exceeding 5×SD.”
# [14] = system: mice; test: Aversive drinking test; type: in vivo, mouse; conditions: PS 750 μM in drinking water
# Procedure: To evaluate the contribution of TRPM3 to trigeminal nociception, we used an aversive drinking test (Caterina et al., 2000). Over a period of 3 days, mice were allowed to drink from a bottle of water for only 1 hour/day. On the fourth day, this solution was supplemented with PS (750 μM). In Trpm3^+/+ mice, this evoked a modest but significant aversion, as evidenced by a 30% reduction in consumed water volume (FIG. 4C).
# as §3
# [15] = Trpm3+/+ mice, PS 2.5 and 5 nmol/paw, progesterone 25 nmol/paw
# [16] = Trpv1−/−, Trpa1−/− and combined Trpv1−/−/Trpa1−/− mice
# T1 sequence (J9SQF3 1-1709 isoform J9SQF3-12): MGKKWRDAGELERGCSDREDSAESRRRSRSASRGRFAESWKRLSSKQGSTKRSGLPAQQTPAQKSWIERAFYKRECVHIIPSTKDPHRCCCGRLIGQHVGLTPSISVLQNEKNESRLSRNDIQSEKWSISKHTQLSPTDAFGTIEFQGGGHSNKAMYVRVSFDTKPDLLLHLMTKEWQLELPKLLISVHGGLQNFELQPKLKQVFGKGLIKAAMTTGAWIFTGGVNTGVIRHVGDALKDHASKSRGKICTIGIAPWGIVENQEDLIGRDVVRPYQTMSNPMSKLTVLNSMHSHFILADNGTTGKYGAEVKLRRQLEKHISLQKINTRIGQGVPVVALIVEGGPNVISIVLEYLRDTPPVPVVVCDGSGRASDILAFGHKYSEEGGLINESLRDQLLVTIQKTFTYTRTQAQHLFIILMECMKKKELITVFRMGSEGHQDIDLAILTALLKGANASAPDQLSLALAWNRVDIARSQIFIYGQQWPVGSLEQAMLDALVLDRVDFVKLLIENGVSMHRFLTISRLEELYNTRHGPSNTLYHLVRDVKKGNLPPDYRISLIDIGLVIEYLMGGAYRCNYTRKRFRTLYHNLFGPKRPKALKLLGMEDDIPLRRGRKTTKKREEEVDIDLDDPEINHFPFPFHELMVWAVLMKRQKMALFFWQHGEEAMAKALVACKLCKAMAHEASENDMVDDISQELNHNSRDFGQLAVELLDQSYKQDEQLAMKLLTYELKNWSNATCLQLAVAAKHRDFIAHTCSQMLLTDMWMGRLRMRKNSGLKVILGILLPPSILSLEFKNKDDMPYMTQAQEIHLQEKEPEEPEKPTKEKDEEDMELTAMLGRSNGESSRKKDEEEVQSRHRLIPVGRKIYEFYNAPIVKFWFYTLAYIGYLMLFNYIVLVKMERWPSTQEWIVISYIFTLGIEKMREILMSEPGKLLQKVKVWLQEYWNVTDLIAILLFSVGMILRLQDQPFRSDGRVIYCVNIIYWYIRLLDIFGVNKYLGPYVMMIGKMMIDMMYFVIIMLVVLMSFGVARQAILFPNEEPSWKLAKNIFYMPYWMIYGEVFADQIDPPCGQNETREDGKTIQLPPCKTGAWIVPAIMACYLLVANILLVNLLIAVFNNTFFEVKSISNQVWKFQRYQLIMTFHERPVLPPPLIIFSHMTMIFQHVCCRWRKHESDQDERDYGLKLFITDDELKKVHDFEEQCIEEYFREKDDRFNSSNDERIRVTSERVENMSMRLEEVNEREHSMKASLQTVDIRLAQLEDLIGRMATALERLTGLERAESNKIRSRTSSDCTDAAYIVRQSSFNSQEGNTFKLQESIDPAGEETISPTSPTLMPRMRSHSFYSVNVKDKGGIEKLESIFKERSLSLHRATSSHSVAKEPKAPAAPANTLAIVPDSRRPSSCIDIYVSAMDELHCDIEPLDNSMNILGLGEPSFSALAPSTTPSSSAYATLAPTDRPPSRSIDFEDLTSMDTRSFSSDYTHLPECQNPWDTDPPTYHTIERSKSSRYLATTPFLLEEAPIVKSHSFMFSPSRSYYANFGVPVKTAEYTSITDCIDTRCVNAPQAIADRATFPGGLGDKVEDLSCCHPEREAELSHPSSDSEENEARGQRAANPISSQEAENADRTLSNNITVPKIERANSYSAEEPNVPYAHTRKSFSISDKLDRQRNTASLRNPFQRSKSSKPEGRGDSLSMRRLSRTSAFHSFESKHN
# T3 sequence (J9SQF3 1-1709 isoform J9SQF3-12): as above
# T2 sequence (Q8NER1 whole entry, species assumed): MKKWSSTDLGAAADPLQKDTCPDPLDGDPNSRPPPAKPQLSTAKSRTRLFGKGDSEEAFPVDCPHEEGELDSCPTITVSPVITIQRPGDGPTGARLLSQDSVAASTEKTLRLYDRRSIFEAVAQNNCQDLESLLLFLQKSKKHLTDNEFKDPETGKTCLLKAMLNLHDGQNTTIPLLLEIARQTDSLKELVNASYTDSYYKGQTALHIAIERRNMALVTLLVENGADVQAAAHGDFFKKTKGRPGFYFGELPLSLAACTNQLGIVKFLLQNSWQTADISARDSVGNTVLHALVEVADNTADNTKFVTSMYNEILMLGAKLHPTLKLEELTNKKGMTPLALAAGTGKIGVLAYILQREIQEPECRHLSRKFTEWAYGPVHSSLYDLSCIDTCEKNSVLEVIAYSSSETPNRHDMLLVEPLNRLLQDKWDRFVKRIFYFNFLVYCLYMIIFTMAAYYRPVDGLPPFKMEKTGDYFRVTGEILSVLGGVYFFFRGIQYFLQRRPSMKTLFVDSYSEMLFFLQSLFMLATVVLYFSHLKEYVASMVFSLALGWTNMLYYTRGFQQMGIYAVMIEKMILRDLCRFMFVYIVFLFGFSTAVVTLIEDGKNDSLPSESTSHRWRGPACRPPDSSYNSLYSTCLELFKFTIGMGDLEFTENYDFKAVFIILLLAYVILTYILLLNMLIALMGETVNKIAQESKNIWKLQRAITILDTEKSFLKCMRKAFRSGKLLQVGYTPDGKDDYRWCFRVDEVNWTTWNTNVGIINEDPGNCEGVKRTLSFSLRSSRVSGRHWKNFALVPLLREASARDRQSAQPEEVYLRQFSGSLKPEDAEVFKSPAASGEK
# TRPA1, sequence (O75762 whole entry, species assumed): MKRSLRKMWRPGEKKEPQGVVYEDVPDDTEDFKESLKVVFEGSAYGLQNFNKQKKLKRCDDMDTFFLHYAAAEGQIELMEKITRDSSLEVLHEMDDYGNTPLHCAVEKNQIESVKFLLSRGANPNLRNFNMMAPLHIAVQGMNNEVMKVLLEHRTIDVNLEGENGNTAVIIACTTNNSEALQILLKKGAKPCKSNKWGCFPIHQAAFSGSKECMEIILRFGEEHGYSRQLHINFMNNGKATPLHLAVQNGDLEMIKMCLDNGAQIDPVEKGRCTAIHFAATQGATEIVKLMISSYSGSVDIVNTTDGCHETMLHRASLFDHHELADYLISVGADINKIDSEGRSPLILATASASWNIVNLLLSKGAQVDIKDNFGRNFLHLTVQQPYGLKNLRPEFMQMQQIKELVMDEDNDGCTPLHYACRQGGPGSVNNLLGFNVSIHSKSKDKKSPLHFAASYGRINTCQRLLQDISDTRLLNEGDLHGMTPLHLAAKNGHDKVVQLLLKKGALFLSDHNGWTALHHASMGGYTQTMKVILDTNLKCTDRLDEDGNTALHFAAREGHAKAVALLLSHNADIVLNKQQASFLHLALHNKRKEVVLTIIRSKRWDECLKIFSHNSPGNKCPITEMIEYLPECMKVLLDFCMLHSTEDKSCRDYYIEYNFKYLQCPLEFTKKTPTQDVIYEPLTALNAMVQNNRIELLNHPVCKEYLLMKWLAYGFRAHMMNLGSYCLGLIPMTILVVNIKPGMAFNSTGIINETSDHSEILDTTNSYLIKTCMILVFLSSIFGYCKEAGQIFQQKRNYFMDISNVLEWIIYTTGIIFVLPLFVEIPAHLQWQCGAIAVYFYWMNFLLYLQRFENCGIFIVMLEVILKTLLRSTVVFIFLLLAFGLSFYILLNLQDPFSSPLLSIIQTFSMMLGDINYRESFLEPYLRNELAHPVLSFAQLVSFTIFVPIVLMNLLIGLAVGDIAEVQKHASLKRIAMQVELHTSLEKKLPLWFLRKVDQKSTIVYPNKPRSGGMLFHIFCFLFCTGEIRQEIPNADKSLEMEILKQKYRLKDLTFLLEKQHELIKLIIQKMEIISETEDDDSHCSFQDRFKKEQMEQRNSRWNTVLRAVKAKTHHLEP
compound,measurement,setting,value
COC(=O)C1=C(C)NC(C)=C(C(=O)OC)C1c1ccccc1[N+](=O)[O-] [nifedipine],EC50,[1],0.4 µM
same,EC50,[2]; read-out: EC50 as agonist of TRPM3,30 µM
COc1cc(CNC(=O)CCCC/C=C/C(C)C)ccc1O [capsaicin],fraction of sensitive TG neurons in Trpm3−/− preparations versus Trpm3+/+,[3],not changed
same,nocifensive behavior (paw licking and lifting),[4]; Trpm3−/− mice,evoked the normal nocifensive behavior
same,TG neurons responding to capsaicin,"[5]; Trpm3+/+ mice, 13 of 23",57%
same,TG neurons responding to capsaicin,"[5]; Trpm3−/− mice, 11 of 21",53%
same,intracellular Ca2+ response of TRPV1-expressing cells,[6],responded
same,fraction of sensitive DRG neurons in Trpm3−/− preparations versus Trpm3+/+,[7],not changed
same,intracellular Ca2+ response of TRPM3-expressing cells,[8],insensitive
CC(=O)[C@H]1CC[C@H]2[C@@H]3CCC4=CC(=O)CC[C@]4(C)[C@H]3CC[C@]12C [progesterone],nocifensive behavior (paw licking and lifting),[4]; [15],did not evoke measurable nociceptive responses
same,nocifensive behavior (paw licking and lifting),[4]; Trpm3−/− mice,did not evoke measurable nociceptive responses
same,TRPM3 agonist activity,[2],no TRPM3 agonist activity
"CC(C)(C)c1ccc(/C=C/C(=O)Nc2ccc3c(c2)OCCO3)cc1 [AMG 9810, (E)-3-(4-t-butylphenyl)-N-(2,3-dihydrobenzo[b][1,4]dioxin-6-yl)acrylamide]",effect on percentage of heat responders in DRG neurons,[7]; AMG 9810 5 μM,significantly reduced
same,effect on capsaicin responses in DRG neurons,"[7]; AMG 9810 5 μM, Trpm3+/+ and Trpm3−/− DRG neurons",completely eliminated
same,heat-responsive cells remaining after treatment,"[7]; Trpm3−/− neurons, AMG 9810 5 μM",substantial fraction of heat-responsive cells
same,TRPV1-mediated heat (42° C.) and capsaicin (2 μM) responses,[9],full inhibition
same,TRPM3-mediated heat (42° C.) and PS (40 μM) responses,[10],unaltered
"C=CCN=C=S [MO, mustard oil]",fraction of sensitive TG neurons in Trpm3−/− preparations versus Trpm3+/+,[3],not changed
same,fraction of sensitive DRG neurons in Trpm3−/− preparations versus Trpm3+/+,[7],not changed
"CC(=O)C1CCC2C3CC=C4CC(OS(=O)(=O)O)CCC4(C)C3CCC12C (centres unmarked) [PS, pregnenolone sulphate]",TG neurons with robust and reversible calcium signals,"[3]; Trpm3+/+ mice, n=273, PS 10 μM",57%
same,fraction of sensitive TG neurons in Trpm3−/− preparations versus Trpm3+/+,[3],drastically decreased
same,responses in TG neurons from TRPV1/TRPA1 knockout mice,[3]; [16],conserved
same,nocifensive behavior (paw licking and lifting),[4]; [15],evoked strong nocifensive behavior
same,nocifensive behavior (paw licking and lifting),[4]; Trpm3−/− mice,completely lacked this nocifensive response
same,nocifensive behavior (paw licking and lifting),[4]; combined Trpv1−/−/Trpa1−/− knockout mice,elicited a nocifensive response that was similar to that observed in Trpm3^+/+ mice
same,TG neurons with inward currents of more than 10 pA,"[5]; Trpm3+/+ mice, 15 of 23",65%
same,TG neurons with inward currents of more than 10 pA,"[5]; Trpm3−/− mice, 0 of 21",never observed
same,TG neurons with inward currents of more than 10 pA,"[5]; Trpv1−/−/Trpa1−/− mice, 9 of 17",53%
same,DRG neurons with robust and reversible calcium signals,"[7]; Trpm3+/+ mice, n=303, PS 10 μM",58%
same,fraction of sensitive DRG neurons in Trpm3−/− preparations versus Trpm3+/+,[7],drastically decreased
same,responses in DRG neurons from TRPV1/TRPA1 knockout mice,[7]; [16],conserved
same,shift of the thermal response profile to lower temperatures,[11],6.1±0.4 degrees
same,intracellular Ca2+ response of TRPM3-expressing cells,[8],robust responses
same,current response to a low dose of PS at higher temperatures,[12],strongly potentiated
same,Ca2+ response to PS,[13]; 37° C.,evoked robust responses
same,Ca2+ response to PS,[13]; room temperature,subthreshold
same,reduction in consumed water volume,[14]; Trpm3+/+ mice,30%
same,aversive response in drinking test,[14]; Trpm3−/− mice,no aversive response
